The record followed here is BindingDB's records for doi:10.1016/s0960-894x(03)00020-9 (Seoul National University, 2003).

pIC50: −log10 of the molar value.

Experiment [1] has as its target Methionine--tRNA ligase (Escherichia coli) (UniProt P00959). Kind of experiment: Inhibitory activity against Escherichia coli Methionyl-tRNA synthetase was determined.
The target of experiment [2] is Isoleucine--tRNA ligase (Escherichia coli) (UniProt P00956). Kind of experiment: Inhibitory activity against Escherichia coli Isoleucyl-tRNA synthetase was determined.
Isoleucine--tRNA ligase (Escherichia coli), sequence (P00956 whole entry, looked up): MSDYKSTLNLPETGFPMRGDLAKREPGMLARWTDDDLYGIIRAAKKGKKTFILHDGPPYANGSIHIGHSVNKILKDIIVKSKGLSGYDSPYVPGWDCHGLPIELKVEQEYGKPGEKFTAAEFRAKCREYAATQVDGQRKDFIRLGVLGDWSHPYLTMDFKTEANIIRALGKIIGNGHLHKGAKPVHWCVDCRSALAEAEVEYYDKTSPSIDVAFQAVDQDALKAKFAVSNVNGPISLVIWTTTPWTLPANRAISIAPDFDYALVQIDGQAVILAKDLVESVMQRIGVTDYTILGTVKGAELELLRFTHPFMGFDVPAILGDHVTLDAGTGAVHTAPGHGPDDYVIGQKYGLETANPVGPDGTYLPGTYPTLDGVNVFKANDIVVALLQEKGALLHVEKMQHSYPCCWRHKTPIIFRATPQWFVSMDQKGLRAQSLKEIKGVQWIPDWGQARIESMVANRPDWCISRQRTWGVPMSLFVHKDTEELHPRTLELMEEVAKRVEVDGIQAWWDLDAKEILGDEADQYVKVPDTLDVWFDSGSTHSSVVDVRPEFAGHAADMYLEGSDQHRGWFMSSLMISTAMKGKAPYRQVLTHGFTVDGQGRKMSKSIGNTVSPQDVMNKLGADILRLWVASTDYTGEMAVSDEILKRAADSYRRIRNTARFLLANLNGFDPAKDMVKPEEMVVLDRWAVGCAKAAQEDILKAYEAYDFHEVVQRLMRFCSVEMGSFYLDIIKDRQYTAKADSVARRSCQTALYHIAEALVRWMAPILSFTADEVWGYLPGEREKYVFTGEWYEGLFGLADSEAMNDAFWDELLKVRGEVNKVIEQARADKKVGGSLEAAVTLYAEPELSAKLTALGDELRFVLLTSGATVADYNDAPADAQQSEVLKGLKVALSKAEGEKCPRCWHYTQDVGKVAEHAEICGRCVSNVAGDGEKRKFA
The target is the same in experiment [3]. The experiment is described as above. This is another data set of the same source.
Experiment [4] deals with Methionine--tRNA ligase (Escherichia coli) (UniProt P00959). Kind of experiment: Inhibitory activity against Escherichia coli Methionyl-tRNA synthetase was determined. The source holds these as a separate data set.
Methionine--tRNA ligase (Escherichia coli), sequence (P00959 whole entry, looked up): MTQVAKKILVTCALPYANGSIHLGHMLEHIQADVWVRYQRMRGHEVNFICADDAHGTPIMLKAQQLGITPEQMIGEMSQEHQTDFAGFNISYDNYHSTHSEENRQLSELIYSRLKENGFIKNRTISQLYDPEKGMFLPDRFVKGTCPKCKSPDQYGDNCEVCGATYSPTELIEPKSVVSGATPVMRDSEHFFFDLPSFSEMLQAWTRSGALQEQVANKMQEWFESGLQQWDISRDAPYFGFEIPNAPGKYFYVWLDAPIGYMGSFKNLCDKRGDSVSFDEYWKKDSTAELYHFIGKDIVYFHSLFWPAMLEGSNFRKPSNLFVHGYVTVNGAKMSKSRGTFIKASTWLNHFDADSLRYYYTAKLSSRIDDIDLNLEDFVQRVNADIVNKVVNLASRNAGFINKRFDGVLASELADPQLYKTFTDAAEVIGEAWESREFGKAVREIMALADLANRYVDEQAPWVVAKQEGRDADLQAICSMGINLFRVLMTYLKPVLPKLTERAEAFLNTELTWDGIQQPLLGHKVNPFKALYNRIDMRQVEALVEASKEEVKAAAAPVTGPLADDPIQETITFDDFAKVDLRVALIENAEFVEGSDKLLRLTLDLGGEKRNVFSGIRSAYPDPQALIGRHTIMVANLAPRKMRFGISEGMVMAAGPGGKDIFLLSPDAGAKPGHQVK

`CSCC[C@H](N)C(=O)NS(=O)(=O)OC[C@H]1O[C@@H](n2cnc3c(N)ncnc32)[C@H](O)[C@@H]1O`: in experiment [1], the pIC50 was 8.15.
Molecule `CC[C@H](C)[C@H](N)C(=O)NS(=O)(=O)OC[C@H]1O[C@@H](n2cnc3c(N)ncnc32)[C@H](O)[C@@H]1O` gave a pIC50 in experiment [2] of 7.01.
`CC[C@H](C)[C@H](N)C(=O)NS(=O)(=O)OC[C@H]1OC(n2cnc3c(NC)nc(I)nc32)[C@H](O)[C@@H]1O` (stereo partly specified) gave a pIC50 in experiment [3] of 4.65.
Take `C#Cc1nc(N)c2ncn(C3O[C@H](COS(=O)(=O)NC(=O)[C@@H](N)CCSC)[C@@H](O)[C@H]3O)c2n1` (stereo partly specified): the negative logarithm of the IC50 (pIC50) in experiment [4] is 5.96.
With `C#Cc1nc(N)c2ncn(C3O[C@H](COS(=O)(=O)NC(=O)[C@@H](N)[C@@H](C)CC)[C@@H](O)[C@H]3O)c2n1` (stereo partly specified), the pIC50 in experiment [3] was 7.41.
For `CCCCC#Cc1nc(N)c2ncn(C3O[C@H](COS(=O)(=O)NC(=O)[C@@H](N)CCSC)[C@@H](O)[C@H]3O)c2n1` (stereo partly specified), the pIC50 in experiment [4] is 5.72.
On the same count and under the same terms, the figure for `CSCC[C@H](N)C(=O)NS(=O)(=O)N(O)C[C@H]1OC(n2cnc3c(N)ncnc32)[C@H](O)[C@@H]1O` (stereo partly specified) is 3.97.
Take `CC[C@H](C)[C@H](N)C(=O)NS(=O)(=O)NOC[C@H]1OC(n2cnc3c(N)ncnc32)[C@H](O)[C@@H]1O` (stereo partly specified): in experiment [3], the pIC50 was 4.89.
In turn, `CSCC[C@H](N)C(=O)NS(=O)(=O)OC[C@H]1OC(n2cnc3c(N)nc(Cl)nc32)[C@H](O)[C@@H]1O` (stereo partly specified) showed a pIC50 in experiment [4] of 5.13.
The same measure, in the same setting: the figure for `CSCC[C@H](N)C(=O)NS(=O)(=O)NOC[C@H]1OC(n2cnc3c(N)ncnc32)[C@H](O)[C@@H]1O` (stereo partly specified) is 4.71.
As for `CSCC[C@H](N)C(=O)NS(=O)(=O)OC[C@H]1OC(n2cnc3c(N)nc(I)nc32)[C@H](O)[C@@H]1O` (stereo partly specified), in experiment [4], the pIC50 was 5.92.
Take `CC[C@H](C)[C@H](N)C(=O)NS(=O)(=O)OC[C@H]1OC(n2cnc3c(N)nc(I)nc32)[C@H](O)[C@@H]1O` (stereo partly specified): the pIC50 in experiment [3] is 7.85.
The same measure, in the same setting: the figure for `CC[C@H](C)[C@H](N)C(=O)NS(=O)(=O)OC[C@H]1OC(n2cnc3c(N)nc(Cl)nc32)[C@H](O)[C@@H]1O` (stereo partly specified) is 5.26.
On the same count and under the same terms, for `CC[C@H](C)[C@H](N)C(=O)NS(=O)(=O)N(O)C[C@H]1OC(n2cnc3c(N)ncnc32)[C@H](O)[C@@H]1O` (stereo partly specified) the value was 3.88.
For the molecule `CNc1nc(I)nc2c1ncn2C1O[C@H](COS(=O)(=O)NC(=O)[C@@H](N)CCSC)[C@@H](O)[C@H]1O` (stereo partly specified), the pIC50 in experiment [4] was 3.72.
Turning to `CCCCC#Cc1nc(N)c2ncn(C3O[C@H](COS(=O)(=O)NC(=O)[C@@H](N)[C@@H](C)CC)[C@@H](O)[C@H]3O)c2n1` (stereo partly specified), the pIC50 in experiment [3] was 5.96.
